What all share (settings): Neisseria gonorrhoeae
In one assay the test system is N. gonorrhoeae 200. Put plainly: MIC/MBC against N. gonorrhoeae clinical isolate 200. The class given is cell-based. The method, then: (§1) Briefly, bacteria were grown overnight on chocolate agar II at 37° C in the presence of 5% CO2. Afterwards, a bacterial suspension equivalent to 1.0 McFarland standard was prepared and diluted in brucella broth supplemented with yeast extract, neopeptone, hematin, pyridoxal, and NAD. Test agents were added in the first row of the 96-well plates and serially diluted along the plates. Plates were then incubated at 37° C in the presence of 5% CO2 for 24 h. […] Plates were then incubated at 37 ° C in the presence of 5% CO2 for 24 h. The MBC was categorized as the lowest concentration that reduced bacterial growth by 99.9% [45, 46, 47].

The next assay relates to N. gonorrhoeae 197. Put plainly: MIC/MBC against N. gonorrhoeae clinical isolate 197. The class given is cell-based. How it is done: as §1
The next assay deals with N. gonorrhoeae WHO L. Put plainly: MIC/MBC against N. gonorrhoeae WHO L reference strain. The class given is cell-based. The method, then: as §1
The next assay concerns N. gonorrhoeae 166. As to the kind of experiment: MIC/MBC against N. gonorrhoeae clinical isolate 166. It counts as cell-based. How it is done: as §1
The next assay has as its system N. gonorrhoeae 194. As to the kind of experiment: MIC/MBC against N. gonorrhoeae clinical isolate 194. The class given is cell-based. The method, then: as §1
Another assay has as its system N. gonorrhoeae 165. Put plainly: MIC/MBC against N. gonorrhoeae clinical isolate 165. The class given is cell-based. The method, then: as §1
The subject of assay [1] is N. gonorrhoeae strain 181. Put plainly: MIC by broth microdilution against N. gonorrhoeae strain 181. It counts as cell-based, Neisseria gonorrhoeae. The method, then: as §1
In general terms: Broth dilution looks for growth in wells or tubes with falling amounts of substance.

Where [2] appears, read: N. gonorrhoeae strain 181, read-out: MIC.

This is an account of results in PMC7957578, “N-(1,3,4-Oxadiazol-2-yl)Benzamides as Antibacterial Agents against Neisseria gonorrhoeae” (International Journal of Molecular Sciences, 2021).

Values after ≈ are worked out from the molar mass of the structure shown. Where two headings read alike, the source gives them in different places.

The term MBC denotes the smallest concentration meeting the test's criterion for killing. High values mean less potent killing, low ones more potent killing. By MIC is commonly meant the least concentration at which growth counts as inhibited. Take `CC[C@H]1OC(=O)[C@H](C)[C@@H](O[C@H]2C[C@@](C)(OC)[C@@H](O)[C@H](C)O2)[C@H](C)[C@@H](O[C@@H]2O[C@H](C)C[C@H](N(C)C)[C@H]2O)[C@](C)(O)C[C@@H](C)CN(C)[C@H](C)[C@@H](O)[C@]1(C)O` [Azithromycin, azithromycin, reference compound]: the MBC was 0.5 µg/mL (≈ 0.668 µM) in the assay on N. gonorrhoeae 200; 2 µg/mL (≈ 2.67 µM) with N. gonorrhoeae 197; 1 µg/mL (≈ 1.34 µM) with N. gonorrhoeae WHO L; 1 µg/mL (≈ 1.34 µM) against N. gonorrhoeae 166; 0.5 µg/mL (≈ 0.668 µM) in the assay on N. gonorrhoeae 194; 4 µg/mL (≈ 5.34 µM) against N. gonorrhoeae 165. Also, the MIC against N. gonorrhoeae 200 was determined as 0.5 µg/mL (≈ 0.668 µM); with N. gonorrhoeae 197 it was 0.5 µg/mL (≈ 0.668 µM); with N. gonorrhoeae WHO L it was 0.5 µg/mL (≈ 0.668 µM); in the assay with N. gonorrhoeae 166, 0.5 µg/mL (≈ 0.668 µM); with N. gonorrhoeae 194, 0.25 µg/mL (≈ 0.334 µM); against N. gonorrhoeae 165, 1 µg/mL (≈ 1.34 µM). Moreover, the lowest concentration to inhibit growth in assay [1] (181) (MIC) was 256 µg/mL (≈ 342 µM).
Regarding `O=C(Nc1nnc(-c2cccs2)o1)c1ccc(S(=O)(=O)C(F)(F)F)cc1` [Compound 6], in assay [1] (setting [2]), the MIC stood at 0.5 µg/mL (≈ 1.24 µM).
Still for that read-out and setting: as for `O=C(Nc1nnc(-c2cccs2)o1)c1ccc(SC(F)(F)F)cc1` [Compound 12], the figure is 0.06 µg/mL (≈ 0.162 µM); as for `O=C(Nc1nnc(-c2cccs2)o1)c1ccc(S(F)(F)(F)(F)F)cc1` [Compound 13], 0.06 µg/mL (≈ 0.151 µM).
